Tests used:
[1] = tested on: Normal human keratinocytes; experiment: Cornified envelope formation (35S incorporation) in keratinocytes; assay type: cell-based; conditions: 15 μM, 0.03 mM calcium, 48-hour
[2] = tested on: full-thickness flank skin from the fetal rats; experiment: Transepidermal water loss (TEWL) of fetal rat skin explants in organ culture (barrier function); assay type: cell-based, Sprague-Dawley rats
Experimental: Timed pregnant Sprague-Dawley rats (plug date=day 0) were obtained from Simonsen (Gilroy, Calif., USA) and fetuses were delivered prematurely on day 17. Transepidermal water loss (TEWL) was measured in excised full-thickness flank skin from the fetal rats after various times in culture. The skin explants were placed dermis-side down onto collagen membrane inserts (3μ pore size) in medium M-199 (serum-free), and submerged, and the lateral edges and dermal surface were sealed with petrolatum, such that water loss occurred only through the epidermal surface. Explant samples were weighed hourly, at ambient temperature (24±3° C.) and humidity (40±5%), over 6 hours using a Cahn balance (sensitivity 0.001 mg). TEWL levels are reported as milligrams of water lost per square millimeter of epidermal surface per hour. Fatty acids and clofibrate (p-chlorophenoxyisobutyric acid) were added to the medium bound to 0.5% (weight/volume) bovine serum albumin (BSA). Isoprenoids and oxysterols were added in ethanol (≦0.1%) and juvenile hormone III was added as a dimethylsulfoxide (DMSO) solution (≦0.1%). Control explants were incubated in the presence of the appropriate vehicle (≦0.1% DMSO or ethanol, and/or ≦0.5% BSA). Skin explants from gestational day 17 rats were incubated in the presence of either various activators or vehicle, and transepidermal water loss was measured after two days. The activators and the concentrations at which they were used were as follows: […]

Steroid Sulfatase = experiment: Steroid sulfatase activity in epidermis of treated fetal rat skin explants; assay type: cell-based, rats; conditions: clofibrate (300 μM), juvenile hormone III (100 μ), mean of five ± SEM
Experimental: (§1) Epidermis was separated from dermis after incubation in 10 mM ethylenediamine tetraacetic acid (EDTA) in Ca^++- and Mg^++-free phosphate-buffered saline (PBS), pH 7.4, at 37° C. for 30-40 minutes. The tissues were then minced, and homogenized on ice (three times at 15 seconds each with a Polytron homogenizer, followed by sonication twice at ten seconds each at 35% power) in either PBS containing 0.1 mM phenylmethylsulfonyl fluoride (PMSF) and 0.1% Triton X-100 (for β-glucocerebrosidase) or in 10 mM Tris (PH 7.5) containing 0.15 M sucrose and 2 mM EDTA (for steroid sulfatase). β-Glucocerebrosidase activity was measured in the supernatant following centrifugation at 10,000×g for fifteen minutes at 4° C. Steroid sulfatase activity was measured in the microsomal fraction resulting from a […] centrifugation (10 minutes, 4° C.) followed by 60 minutes of 100,000×g ultracentrifugation at 4° C. Protein content was measured by conventional techniques.
Steroid sulfatase activity was measured by incubating 100 μg of microsomal protein in 0.1 M Tris containing 5.6 mM glucose (pH 7.4) with 15 μM, (^3H) dihydroepiandrosterone sulfate (DHEAS) (15 μCi) in a final volume of 1.1 mL The product, (^3H) DHEA, was extracted with benzene and an aliquot counted by scintillation spectrophotometry.
(§2) Skin explants from 17-day fetal rats were incubated for 24 or 48 hours in media individually containing clofibrate (300 μM) and juvenile hormone III […], and control media. Enzyme activity was measured and the results are presented in Table I as the mean values of five determinations±SEM (standard error of the mean). All p values are ≦0.005 compared with controls of the same time period.

β-Glucocerebrosidase = β-Glucocerebrosidase activity in epidermis of treated fetal rat skin explants; assay type: cell-based, rats; conditions: clofibrate (300 μM), juvenile hormone III (100 μ), mean of five ± SEM
Experimental: as §1
β-Glucocerebrosidase) activity was assayed using the synthetic substrate 4-methylumbelliferyl β-D-glucoside (4-MUG). The assays were performed in 5 mM sodium taurocholate in citrate-phosphate buffer (pH 5.6) with 0.5 mM 4-MUG for sixty minutes at 37° C., with a final assay volume of 100 μL, and protein concentration of 1-2 mg/mL. The reaction was terminated with 2 mL of carbonate-bicarbonate buffer (pH 10.5). The fluorescence was then measured at […] (excitation) and 450 λ (emission) and compared with a standard 4-methylumbelliferone (4-MU) curve.
as §2

[3] = tested on: Skin explants from gestational day 17 rats; experiment: Light and electron microscopy of fetal rat skin explants (epidermal maturation); assay type: cell-based
Experimental: Samples for light microscopy were fixed in modified Karnovsky's solution, plastic-embedded, and 0.5 μm sections were stained with toluidine. Samples for electron microscopy were minced into 1 mm^3 pieces, fixed in modified Karnovsky's fixative, and processed. Sections were stained with uranyl acetate and lead citrate, post-fixed in ruthenium tetroxide, and examined using a Zeiss 10A electron microscope.
Explants incubated in various media woe examined by light microscopy. The incubation di included control medium (containing no activators) and various media individually containing 300 μM clofibrate, 100 μM juvenile hormone III, 300 μM oleic acid, 30 μM linoleic acid, 50 μM farnesol, and various concentrations of 9-cis-retinoic acid, all-trans-retinoic acid, and 1,25-dihydroxy vitamin D3.
Observations were then made of the ultrastructural maturation of the outer epidermis in explants that had been incubated in the various media and then post-fixed in ruthenium tetroxide. Media identical to those of the preceding paragraph were used, excluding the retinoic acid-containing and 1,25-dihydroxy vitamin D3-containing media.

fetal rodent skin = conditions: earlier studies (Hanley et al. 1996); cited from earlier work

Question: Which “rate of cornified envelope formation” value [1] does the source give for `COC(=O)C=C(C)CCC=C(C)CCC1OC1(C)C` (stereo not drawn) [juvenile hormone III, 7-methyl-9-(3,3-dimethyloxiranyl)-3-methyl-2,6-nonadienoic acid methyl ester] here?
Answer: substantial increases in the rate of cornified envelope formation

Question: And the “effect on TEWL / barrier formation” value ([2]; 100 μM, two days)?
Answer: significantly accelerated barrier formation

Question: What about the EC50 ([2]; Rattus norvegicus, dose response, FIGS. 4a-4c, read-out: concentration of half-maximal effect on barrier development (TEWL)) of the same compound?
Answer: ~75 µM

Question: What about the “concentration of maximal effect on barrier development (TEWL)” value ([2]; dose response, FIGS. 4a-4c) of the same compound?
Answer: approximately 250 μM

Question: And the “Steroid Sulfatase Activity” value (Steroid Sulfatase; 24-Hour Incubation)?
Answer: 12.55 ± 1.25 pmol/h/mg

Question: What about the “Steroid Sulfatase Activity” value (Steroid Sulfatase; 48-Hour Incubation) of the same compound?
Answer: 18.23 ± 2.35 pmol/h/mg

Question: What about the “β-Glucocerebrosidase Activity” value (β-Glucocerebrosidase; 24-Hour Incubation) of the same compound?
Answer: 2.89 ± 0.20 nmol/min/mg

Question: What about the “β-Glucocerebrosidase Activity” value (β-Glucocerebrosidase; 48-Hour Incubation) of the same compound?
Answer: 5.20 ± 0.62 nmol/min/mg

Question: And the “light microscopy of the epidermis” value ([3]; 100 μM, 48 hours)?
Answer: had both a multi-layered stratum granulosum and a stratum corneum

Question: Which results are given for `CC1=C(/C=C/C(C)=C\C=C\C(C)=C\C(=O)O)C(C)(C)CCC1` [9-cis-retinoic acid]?
Answer: acceleration of the appearance of a mature barrier in fetal rodent skin (fetal rodent skin): had no effect; light microscopy of the epidermis ([3]; various concentrations): did not exhibit a distinct stratum corneum

Question: What does the source list for `CC1=C(/C=C/C(C)=C/C=C/C(C)=C/C(=O)O)C(C)(C)CCC1` [all-trans-retinoic acid]?
Answer: acceleration of the appearance of a mature barrier in fetal rodent skin (fetal rodent skin): had no effect; light microscopy of the epidermis ([3]; various concentrations): did not exhibit a distinct stratum corneum

Question: For `C=C1/C(=C\C=C2/CCC[C@]3(C)[C@@H]([C@H](C)CCCC(C)(C)O)CC[C@@H]23)C[C@@H](O)C[C@@H]1O` [1,25-dihydroxyvitamin D3], which “acceleration of the appearance of a mature barrier in fetal rodent skin” value (fetal rodent skin) is on record?
Answer: had no effect

Question: What about the “light microscopy of the epidermis” value ([3]; various concentrations) of the same compound?
Answer: did not exhibit a distinct stratum corneum

From patent USRE37770E1, “Treatment of skin conditions by use of PPARα activators” (The Regents of the University of California, priority 1997, dated 2002)
